Test results as given in patent publication US8637573B2 (Iasomai AB, priority 2009, dated 2014).

What was measured:
endometriotic lesions = assay: Murine model of endometriosis: growth (total weight) of endometriotic lesions; assay type: in vivo, BALB/C mice; conditions: mice, gavage 44 mg/kg/day daily for 21 days; n=10 vs n=10; p<0.05
Protocol: 36 female, 6 to 8 weeks-old BALB/C mice were purchased from Charles River Italia (Calco, Italy). Pellet food (enriched standard diet; Mucedola, Milan, Italy) and water were provided ad libitum. Animals were kept on a light/dark cycle of 16/8 hours under controlled conditions. Prior to any invasive procedure, the mice were anaesthetized by intraperitoneal injection of 0.4 ml of a physiological solution containing 2.5% AVERTIN.
Induction of endometriosis was performed following the method described in Somigliana et al, Hum Reprod 1999 December; 14(12):2944-50. Surgical interventions were performed under clean conditions. Briefly, uterine horns of syngenic mice were removed through a small midline incision into the peritoneal space, just below the umbilicus, and put into a Petri dish containing phosphate-buffered saline (PBS). Endometrial fragments were obtained by finely chopping uterine horns by using a razor blade. Fragments were suspended in 0.6 ml of PBS and rapidly inoculated into the peritoneal cavity of recipient mice with a ratio of one donor to two recipients. The endometriosis-induced mice were randomly divided into two groups of 12 mice each: control and NAC-treatment. […]
At the end of the treatment, animals were sacrificed and endometriotic lesions were carefully excised from the surrounding tissue, their total weight and number was assessed. […]

P21 (cdkn1a) = assay: RT-PCR of P21 gene expression in cysts from mice; assay type: in vivo, BALB/C mice; conditions: 44 mg/kg/day, 21 days
Protocol: (§1) The day after the endometrial implant, mice of the treatment group were subjected to gavage with 100 [mu] […] The control group only received water. […] At the end of treatment, mice were killed through cervical dislocation.
Total RNA was isolated by lysing the frozen endometrial cysts with TissueLyser (QIAGEN, Milan, Italy) using TRIzol Reagent (Invitrogen, Milan, Italy) according to the manufacturer's instructions. One microgram of total RNA from each sample was treated with 1 U of DNAse I (Invitrogen) and reverse transcribed with 200 U of Superscript III Reverse Transcriptase (Invitrogen), using 250 ng of random primers in 20 [mu] l of final volume. […]
First, the ratio between the sample and the housekeeping gene was calculated by simultaneous amplification of gene-specific mRNA and 18S RNA in a single reaction tube. Since this procedure was not successful for all samples—likely due to the relative small number of specific transcripts thus of a preferential amplification of 18S mRNA—to prevent quantitative inaccuracies deriving from competitive effects, the target genes and 18 S cDNA generated in the same RT reaction were amplified in separate tubes. […] Semi quantitative PCR was performed in a 25 [mu] […] The densitometric analyses of the PCR products were performed using an image software Quantity One (VersaDOC, Bio-Rad).

E-cadherin = assay: Immunohistochemical detection of E-cadherin in cysts from mice; assay type: in vivo, BALB/C mice; conditions: 44 mg/kg/day, 21 days, controls: diffused all over cell cytoplasm
Protocol: as §1
(§2) Formalin-fixed samples were paraffin-embedded and tissue sections (5 [mu] [iota] [eta] thick) were stained using haematoxylin-eosin. All slides were evaluated by an experienced pathologist who was blind to the study and the histological diagnosis of endometriosis was based on the morphological identification of endometrial glandular tissue and stroma.
(§3) For immunohistochemistry, sections were deparaffinized and rehydrated in graded ethanol. For antigen retrieval, sections were microwaved for 6 min in 0.1 M citrate buffer (pH 6.0) and endogenous peroxidase activity was blocked by a 20 min incubation in 3% H202/methanol. Sections were rinsed in PBS/TritonX-100, immersed for 15 min in PBS-bovine serum albumin (BSA) 1% to block unspecific binding sites, and then incubated with the selected primary antibody diluted in PBS-BSA 1%. […] The quantification of Ki-67 expression was carried out in a blind fashion by two independent observers; each observer counted at least 200 cells in more than 10 randomly chosen fields for each sample and the Ki-67 labeling index was expressed in percentage.

Cox-2 protein = assay: Immunohistochemical detection of Cox-2 protein in cysts from mice; assay type: in vivo, BALB/C mice; conditions: 44 mg/kg/day, 21 days
Protocol: as §1, §2, §3

Ki-67 = Ki-67 immunohistochemistry (labeling index) in cysts from mice; assay type: in vivo, BALB/C mice; conditions: 44 mg/kg/day, 21 days
Protocol: as §1, §2, §3

[1] = Toxicity observation in the murine endometriosis model; assay type: in vivo; conditions: mice, 44 mg/kg/day by gavage, 21 days
From the text: as §1

ovarian endometriomas = assay: Preliminary clinical study: size of ovarian endometriomas by ultrasound; assay type: in vivo; conditions: women
Protocol: Women with a first diagnosis of endometriosis, based on pain and on ovarian ultrasound evidence of the disease, and patients with a recurrence of pain and/or ovarian endometrioma after laparoscopic treatment were enrolled in the study,
(§4) Before treatment, the intensity of pain symptoms was measured by the means of a 10 points visual analogue scale (VAS) and the characteristics of the ovarian endometriomas by transvaginal ultrasounds. During NAC treatment, other treatments are excluded with the exception of analgesic to treat pain, when needed. Patients.
(§5) From February 2008 to July 2010, 64 women diagnosed for ovaric endometriosis were enrolled in the study, with a mean age of 35+−7 years (+−SD). […] All of them presented one or more cysts at one or both ovaries.
(§6) 1995; 4:245-51), the suspension of the treatment for about half of each week warrants an optimal biological response in a lengthy treatment, e.g. two to six months or longer.
(§7) Pain symptoms intensity (VAS pain scale) and the size of the ovarian endometriomas (clinical and US exams) were evaluated after the first three months of treatment. If necessary, laparoscopic treatment was performed after 3 months.

[2] = Preliminary clinical study: pain intensity by 10-points visual analogue scale (VAS); assay type: in vivo, women; conditions: NAC-treated patients, 10-points VAS
Protocol: as §4, §5, §6, §7
Pain perception was also modified after NAC treatment. Pain was evaluated, before and after the three-months treatment, by a 10-points visual analogue scale (VAS) with zero representing no pain and 10 representing the worst imaginable pain. Intensity of symptoms were classified as none (0), mild (1-4), moderate (5-7), or severe (8-10). NAC-treated patients reported an average pain reduction, from 7.6+−0.3 to 5.1+−0.8 (p<0.01) after three months of treatment.

[3] = Preliminary clinical study: side effects, pregnancy and other observations; assay type: in vivo, women
From the text: as §5, §6, §7

vaginal hyperalgesia = assay: Experimentally induced endometriosis in rats: escape response to vaginal distention (vaginal hyperalgesia); assay type: in vivo, Sprague-Dawley rats; conditions: 60 mg/kg/day, 8 weeks, 0.5 ml distension volume
Protocol: 16 adult virgin female Sprague-Dawley rats were used. They weighed 200-230 g at the start of the study and were housed individually in a temperature-controlled room in plastic cages lined with bedding. The rats had ad libitum access to water and rat chow and were maintained on a 12-h light/dark cycle, with lights on at 07:00. Reproductive status (proestrus, estrus, metestrus, and diestrus) was determined by daily vaginal lavage performed. Prior to induction of endometriosis rats were trained to perform an escape response to terminate vaginal distention produced by an inflatable latex balloon. A small uninflated latex balloon was tied to a thin catheter lubricated before being inserted into the mid-vaginal canal. Inflating the balloon with different volumes of air distended the vaginal canal. The pressure produced by each volume of distention was control measured through a small-volume pressure transducer. The testing apparatus was a small cylindrical plexiglass chamber designed to contain the rat just enough to prevent her from turning around. An opening in the rear of the chamber allowed the catheter attached to the vaginal stimulator to be connected to a stimulus apparatus. A photosensor determined the position of the rat in the chamber. If the rat extended, as part of an escape response, the light beam was broken and the stimulus was terminated. The rats were adopted to the testing chamber by placing it in the chamber for 15 min daily for 5 days. The rats were then, during training sessions, accustomed to a mechanical escape response to deflate vaginal distension, which involved the rat extending her head to interrupt the light beam. […] Time to response and escape responses were measured as a function of distention volume for each session, as described in Cason A M et al (Horm Behav. (2003), Vol. 44, pages 123-31). […] For each rat, the escape responses and pressures/volumes for all of that rat's sessions (at least 12 sessions) were combined, and the mean values calculated. […] The escape response to terminate vaginal distention, as described above, was assessed after 8 weeks.

[4] = cited from earlier work

## CC(=O)N[C@@H](CS)C(=O)O [NAC, N-acetyl-L-cysteine]
Endometriotic lesions
  total weight of endometriotic lesions vs controls: significant weight reduction
P21 (cdkn1a); never expressed in the 5 controls
  P21 gene expressed, number of examined NAC-treated samples: 3 of the 5
P21 (cdkn1a); not expressed in controls
  P21 observed, percent of NAC-treated animals: 60%
E-cadherin
  E-cadherin localisation in cysts: mainly detected along cell-cell junctions
Cox-2 protein
  Cox-2 protein immunohistochemical staining relative to cysts from control mice: quite a decreased staining
Ki-67; 8 animals per group
  reduction in proliferating cells (Ki-67) relative to control mice: 54%
Ki-67; n = 8 × 5, p < 0.01
  Labeling index for Ki-67 with standard error: 0.87 ± 0.11%
[1]
  body weight at the end of treatment: unchanged
Ovarian endometriomas; 1.8 g NAC per day, three consecutive days each week, three months, controls less than 10%
  cases with a decrease in cyst size (maximum diameter by ultrasound): 38%
Ovarian endometriomas; NAC treatment three months
  patients who decided to cancel or postpone the programmed laparoscopy: 21 out of 33
[2]; 1.8 g per day three days each week, p<0.01
  average pain (VAS) after three months of treatment: 5.1+−0.8
[2]; baseline
  average pain (VAS) before treatment: 7.6+−0.3
[3]; NAC-treated women, no statistical significance attributed
  cases of pregnancy: three
[3]; anecdotic observation by surgeon, endometrioma more regular and compact
  bleeding during laparoscopy after NAC treatment: relevant reduction in bleeding
[3]; one additional case
  recto-vaginal septum nodule: disappeared
[3]; women, 1.8 g NAC per day, three days each week, three months
  adverse side effects: No adverse side effects
Vaginal hyperalgesia; daily NAC treatment
  relative reduction in escape response in relation to sham treated group: 18%
Vaginal hyperalgesia; intermittent NAC treatment (5 days and 2 days rest)
  relative reduction in escape response in relation to sham treated group: 28%
Vaginal hyperalgesia; pulsed NAC treatment (every other day)
  relative reduction in escape response in relation to sham treated group: 32%
[4]; in vivo
  time to peak concentration in plasma: about one
  time to total clearance: six and twelve
[4]; plasma
  half-life: about three
